Measurements from patent US20230406850A1, “CRYSTALLINE FORM OF HETEROCYCLIC COMPOUND, PREPARATION METHOD THEREFOR AND APPLICATION THEREOF” (WUHAN LL SCIENCE AND TECHNOLOGY DEVELOPMENT CO., LTD., priority 2020, published 2023).
≈ marks a conversion by molar mass, not a printed value.

Assays:
SD rats = test: Taste disorder test by double bottle method; type: in vivo, rat; conditions: single intraperitoneal injection, 15 minutes
Source text: SPF male SD rats (6-8 weeks) received 3 days of adaptive drinking water training immediately after storage, and the specific training content was that animals were kept in a single cage, and two bottles of water (both common drinking water) were placed in each cage, and during the adaptive training, water treatment was forbidden all night (the drinking water bottle was removed), and drinking water was given again at 8:30 am to 5:30 pm, and then this cycle lasted for 3 days, and the two bottles of water were changed every day, and during the whole adaptive training period, animals were ate freely. All animal water bottles were removed 20 hours before the formal experiment, and water was banned until the time of the experiment. During the formal experiment, all animals were randomly divided into groups, and the test compound or vehicle was given before the water supply was renewed, and the drug was given by single intraperitoneal injection, and the administration time was determined according to the Tmax of the test compound. Then, the animals were placed in a single cage, and given two bottles of drinking water, one bottle of ordinary drinking water and one bottle of 0.3 mM tonic water, and the water consumption of animals was observed within 15 minutes, and the quinine water consumption/ordinary water consumption was statistically analyzed, with positive compound 2 as the positive control of taste disorder.

refractory cough = conditions: phase II clinical trial; cited from earlier work
[1] = Solubility in biological media SGF, FaSSIF and FeSSIF; type: physicochemical
Description: Compared with other crystalline forms, crystalline forms I, III and V show good solid properties, so their solubility was tested respectively.
10 mg of the sample was weighed, and then 2.0 mL of biological media buffer (i.e. the target concentration is 5 mg/mL) was added to form a suspension. The mixture was put in a constant temperature water bath shaker (37° C., 100 rpm), and sampled 500 μL at 0.5, 2 and 24 hours respectively. After filtration, the pH value and HPLC concentration of filtrate were tested respectively, and the solid sample obtained by filtration was tested by XRPD.

[2] = Mechanical stability test (grinding and pelleting); type: physicochemical; conditions: grinding 2 min and 5 min
Description: The mechanical stability of crystalline forms I and III were investigated by grinding and pelleting. Grinding test method: the sample to be measured was put in a mortar and grinded for 2 minutes and 5 minutes respectively, then XRPD was test, and the changes of crystalline form and crystallinity were observed. Pelleting test method: the sample was placed in the die of tablet press, kept at 40 MPa for one minute, and then the crystalline form taken out to test XRPD.

[3] = Solid-state crystal transformation between crystalline forms I and V; type: physicochemical; conditions: mixture of forms I and V, oven at 60° C. and room temperature dryer, one week
[4] = Competitive slurrying experiment of crystalline forms I and V; type: physicochemical; conditions: acetone, ethanol, room temperature and 60° C., three days
Description: Competitive slurrying experiment was carried out: the same amount of crystalline forms I and V were weighed and mixed evenly, then XRPD was tested, and the results were used as T0 of competitive slurrying experiment. The mixture was slurried in acetone, ethanol and water at room temperature and 60° C. Three days later, solid samples were obtained by filtration, and. XRPD was tested.

[5] = Dynamic vapor sorption (DVS) hygroscopicity; type: physicochemical
Description: The solid was analyzed by DVS using IGA sorp dynamic vapor sorption instrument. • Temperature: 25° C. • Gas flow: 250 mL/min. • Scan cycle: 2. • Minimum test time: 30 min. • Maximum test time: 2 hours. • Waiting for balance: 98%.

[6] = Physical and chemical stability (stability boxes, XRPD and HPLC); type: physicochemical
Description: About 10 mg of crystalline forms I, III and V were placed in the stability boxes at 40° C./75% RH (open) and 60° C. (covered) for seven days, and some samples were taken out for XRPD and HPLC tests at 0 and 7 days, respectively, to investigate their physical and chemical stability.

[7] = Pharmacokinetics, crystalline form I versus crystalline form V; type: in vivo, Beagle dog; conditions: 10 mg/kg po, fasting, male dogs
Description: Beagle dog (general grade, Beijing Masi Biotechnology Co., Ltd.) was given compound A by single oral gavage to study the pharmacokinetics of the compound in plasma. The test drug (100 mg/kg dosage, 5 mL/kg administration volume) was given by gavage, and samples were collected at 10 minutes, 30 minutes, 1 hour, 2 hours, 4 hours, 6 hours, 8 hours, 10 hours, 24 hours and 48 hours after administration: peripheral venipuncture was performed, and about 1.0 mL whole blood was collected from each animal at every time point, and blood samples were collected. Within 60 minutes after blood collection, 0.2 mL of whole blood was separated into a cryopreservation tube, and deionized water was added at a ratio of 1:1, which was mixed upside down and then frozen. The remaining samples were centrifuged at 2,000 g at 2 to 8° C. for 10 min to obtain plasma samples, and the hemolysis of each sample was recorded, and the influence on detection was evaluated, and then the color of plasma was observed and recorded on the blood collection table (“−” means no hemolysis, “+” means pink supernatant and “++” means red supernatant).
The concentration of compound A in plasma was determined by LC-MS/MS method (Non-GLP). The pharmacokinetic parameters were calculated by WinNonlin (Phoenix™, version 8.1) or other similar software. If applicable plasma drug concentration-time data are available, the following pharmacokinetic parameters are calculated: CL (clearance), Vss (steady-state apparent volume of distribution), T1/2 (elimination half-life), Cmax (peak concentration), Tmax (peak time), AUC (area under the concentration-time curve), MRT (mean residence time). Pharmacokinetic data were described by descriptive statistics, such as mean, standard deviation and sample size.
Comparison of crystalline form and crystalline form V is the same for 3 dogs (male), 10 mg/kg po, fasting, 0.5% CMC-Na stirring for 3 hours, and then administration (suspension), and the data obtained are as shown in Table 7.

[8] = Water activity experiment (slurry in acetone/water); type: physicochemical; conditions: three days
Description: Water activity experiment was carried out. Crystalline forms I and V ([…]) were slurried in a mixed solvent in acetone/water with different water contents at room temperature and 60° C. for three days, and after three days, solid sample was filtered to test XRPD, and the experimental results are as shown in Table 4.

[9] = male, beagle, dog, plasma, po, 10 mg/kg, 0.5% CMC-Na suspension

## COc1cc(C(C)C)c(Oc2cnc(N)nc2N)cc1S(N)(=O)=O [Positive compound 2, reference compound]
SD rats; 10 mg/kg
  Quinine/tap water * 100%: 18.62%
SD rats; 20 mg/kg
  Quinine/tap water * 100%: 34.99%
Refractory cough
  effect on refractory cough: good effect
  taste side effect: taste disturbance is a serious problem

## COC(=O)N1CCO[C@@H](Cc2c(-c3c(F)cc(S(N)(=O)=O)cc3F)nc3cc(Cl)ccn23)C1 [Crystalline form I, methyl (S)-2-((7-chloro-2-(2,6-difluoro-4-sulfamoylphenyl)imidazo[1,2-a]pyridin-3-yl)methyl)morpholine-4-carboxylate]
[1]; FaSSIF and FeSSIF buffer
  crystalline form during the solubility test: transformed into hydrate of crystalline form IV
[1]; FaSSIF, 0.5 h
  pH of filtrate: 6.4
[1]; FaSSIF, 0.5 h, 37° C.
  Solubility: 26 µg/mL (≈ 51.9 µM)
[1]; FaSSIF, 2 h
  pH of filtrate: 6.4
[1]; FaSSIF, 2 h, 37° C.
  Solubility: 25 µg/mL (≈ 49.9 µM)
[1]; FaSSIF, 24 h
  pH of filtrate: 6.4
[1]; FaSSIF, 24 h, 37° C.
  Solubility: 34 µg/mL (≈ 67.9 µM)
[1]; FeSSIF, 37 °C, fessif, thermodynamic from solid, FeSSIF, 0.5 h, 37° C., read-out: Solubility
  solubility at 0.5 h: 72 µg/mL (≈ 144 µM)
[1]; FeSSIF, 37 °C, fessif, thermodynamic from solid, FeSSIF, 2 h, 37° C., read-out: Solubility
  solubility at 2 h: 83 µg/mL (≈ 166 µM)
[1]; FeSSIF, 37 °C, thermodynamic from solid, 24 h
  solubility at 24 h: 107 µg/mL (≈ 214 µM)
[1]; FeSSIF, 0.5 h
  pH of filtrate: 5.0
[1]; FeSSIF, 2 h
  pH of filtrate: 5.1
[1]; FeSSIF, 24 h
  pH of filtrate: 5.1
[1]; SGF, 0.5 h
  pH of filtrate: 1.2
[1]; SGF, 2 h
  pH of filtrate: 1.3
[1]; SGF, 24 h
  pH of filtrate: 1.2
[2]
  crystalline form and crystallinity after grinding: decreased significantly
[3]
  mutual crystal transformation in solid state: no mutual crystal transformation trend
[4]
  relative stability inferred from competitive slurrying and water activity tests: more stable in organic solvent system or mixed solvent with low water content (≤10%)
[5]
  XRPD before and after the DVS test: remains unchanged
  relative humidity above which transformed into hydrate of crystalline form IV: higher than 40 % RH
[5]; 25° C.
  DVS pattern, behaviour in words: increases sharply
[5]; 80% RH, 25° C.
  hygroscopicity (DVS): 6.8%
[6]; 0 days
  Initial purity (Peak area %): 99.38 peak area %
[6]; 40° C./75% RH (open)
  Purity -7 days (peak area %): 99.38 peak area %
[6]; 40° C./75% RH and 60° C., seven days
  stability conclusion in words: good chemical stability
[6]; 60° C. (covered)
  Purity -7 days (peak area %): 99.37 peak area %
[7]
  AUC (crystalline form I):AUC (crystalline form V): 300.53%
[7]; 0.5% CMC-Na suspension, plasma
  AUClast: 7926.33 ng·h/mL
  Cmax: 991.33 ng/mL
  F: 35.2%
  T1/2: 11.91 h
  Tmax: 2.00 h
[7]; [9]
  AUC(0-inf): 8940 ng·h/mL
  MRT last: 8.11 h
[8]; water content 10%, 60° C.
  The experimental results (crystalline form): Crystalline form VI
[8]; water content 10%, RT
  The experimental results (crystalline form): Crystalline form I
[8]; water content 50%, 60° C.
  The experimental results (crystalline form): Crystalline form IV
[8]; water content 50%, RT
  The experimental results (crystalline form): Crystalline form IV
[8]; water content 90%, 60° C.
  The experimental results (crystalline form): Crystalline form IV
[8]; water content 90%, RT
  The experimental results (crystalline form): Crystalline form IV
